pIC50: −log10 of the molar value. Like-named read-outs stand apart in the source and are kept apart here.
What was measured:
[1] = test system: P. falciparum male gametocytes; assay: P. falciparum Dual Gamete Formation Assay (PfDGFA), male readout (exflagellation); assay type: cell-based, Plasmodium falciparum NF54; details: for inhibition at 2 µM: PfDGFA at 2µM, 24h preincubation with gametocytes
Summary of the method: (§1)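 Day-14 NF54 gametocytes were incubated with compound for 24 h at 37°C under 1% O2/3% CO2/96% N2. Gametogenesis was triggered with ookinete medium (0.1 μM xanthurenic acid) plus Cy3-anti-Pfs25, and exflagellation was imaged by brightfield after cooling to 4°C then 28°C. Females were imaged by Pfs25 fluorescence 24 h later at 28°C.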

[2] = test system: P. berghei ookinete development; assay: P. berghei Ookinete Development Assay (PbODA); assay type: cell-based, Plasmodium berghei; details: Mean TOX HepG2 over Pb ODA value; GREEN = >10-fold; RED = <10-fold
Source text: (§2) Fig 1 The activity of TCAMS compound identified in the Pf DGFA screen. (A) 85 molecules were confirmed active in the Pf DGFA. 58 were previously identified in one or more transmission-blocking screens. […] No molecule was identified with >4.7-fold greater activity against female gametocytes. Abbreviations (IC50 = concentration giving 50% inhibition, PbODA = P. berghei Ookinete Development Assay, PfDGFA = P. falciparum Dual Gamete Formation Assay, PfFGAA = P. falciparum Female Gametocyte Activation Assay, PfGCT = P. falciparum Gametocyte Viability ATP Assay).

HepG2 cells [3] = details: cited from earlier work
[4] = test system: P. falciparum female gametocytes; assay: P. falciparum Dual Gamete Formation Assay (PfDGFA), female readout (Pfs25-positive female gametes); assay type: cell-based, Plasmodium falciparum NF54; details: for inhibition at 2 µM: PfDGFA at 2µM, 24h preincubation with gametocytes
Summary of the method: as §1

HepG2 cells [5] = assay: HepG2 cytotoxicity counter-screen; details: for Mean TOX: mean of the HepG2 TOX50 values
[6] = test system: P. falciparum female gametocytes; design: method as in Miguel-Blanco et al 2017; details: ref Miguel-Blanco et al 2017; read-out: Pf female gametogenesis FGAA IC50; cited from earlier work
[7] = test system: P. falciparum female gametocytes; assay: P. falciparum Female Gametocyte Activation Assay (PfFGAA); assay type: cell-based, Plasmodium falciparum
Source text: as §2

[8] = this study, read-out: Pf DGFA IC50 MALE
[9] = this study, read-out: Pf DGFA IC50 FEM
[10] = Mean TOX HepG2 over FGAA IC50, GREEN = >10-fold, RED = <10-fold

| SMILES | Cytotox ratio Pf Male [1] | pIC50 [1, 8] | Cytotox ratio Pb Ookinete [2] | ODA TOX50 HepG2 (HepG2 cells [3]) | Cytotox ratio Pf Female [4] | Mean TOX (HepG2 cells [5]) | pIC50 [4, 9] | pIC50 [6] | FGAA TOX50 HepG2 (HepG2 cells [3]) | Cytotox ratio Pf FGAA [7, 10] | also measured |
| --- | --- | --- | --- | --- | --- | --- | --- | --- | --- | --- | --- |
| C#C[C@H]1O[C@@H](n2cnc3c(Nc4cc(Br)cc(C(F)(F)F)c4)ncnc32)[C@H](O)[C@@H]1O [TC70] | 262.6 | 6.52 | 88432.3 | 57.54 µM | 7.9 | 78.77 µM | – | – | – | – | DGFA Tox50 HepG2 (HepG2 cells [5]; HepG2 value reported with the DGFA screen): 100 µM |
| Br.CC[C@H]1CN2CCc3cc(OC)c(OC)cc3[C@@H]2C[C@@H]1C[C@H]1NCCc2c1cc(OC)c(O)c2I [TC07] | 7.0 | 6.08 | 8736.5 | 5.433 µM | 20.3 | 5.89 µM | 6.54 | – | – | – | – |
| COc1ccc(Nc2ncc(OC)c(Nc3ccccc3C(N)=O)n2)cc1N1CCN(C)CC1.O=CO [TC59] | 52.0 | 6.74 | 19018.5 | 13.49 µM | 1.2 | 9.37 µM | 5.10 | – | – | – | – |
| CC(Nc1cc(-c2ccccn2)nc(-c2ccccn2)n1)c1ccccc1 (centres unmarked) [TCMDC-125420] | – | – | – | – | – | 6.79 µM | – | 6.68 | – | – | Selectivity Ratio M ([1]; HepG2 Tox50 versus male IC50): 3.89; Cytotox ratio Pf Male ([1]; Mean TOX HepG2 over DGFA IC50 MALE, GREEN = >10-fold, RED = <10-fold): 3.6; inhibition at 2 µM ([1]; Plasmodium falciparum, average of replicates, read-out: Average inhibition male (%)): 78.7%; inhibition at 2 µM ([1]; Plasmodium falciparum, replicate R1, read-out: % inhibition male (individual replicates) R1): 74.1%; inhibition at 2 µM ([1]; Plasmodium falciparum, replicate R2, read-out: % inhibition male (individual replicates) R2): 77.3%; inhibition at 2 µM ([1]; Plasmodium falciparum, replicate R4, read-out: % inhibition male (individual replicates) R4): 84.5%; pIC50 ([1]; Plasmodium falciparum, PfDGFA, 24 h incubation with gametocytes before induction, exflagellation readout, read-out: Male IC50): 5.72; HitlevelM ([1]; number of replicates with >50% inhibition in the male readout, 2µM): 3; FGAA TOX50 HepG2 (HepG2 cells [3]; HepG2 value reported with the FGAA screen, ref Miguel-Blanco et al 2017): 6.18 µM; Selectivity ratio F ([4]; HepG2 Tox50 versus female IC50): 10.4; Cytotox ratio Pf Female ([4]; Mean TOX HepG2 over DGFA IC50 FEM, GREEN = >10-fold, RED = <10-fold): 9.6; inhibition at 2 µM ([4]; Plasmodium falciparum, average of replicates, read-out: Average inhibition female (%)): 56%; inhibition at 2 µM ([4]; Plasmodium falciparum, replicate R1, read-out: % inhibition female (individual replicates) R1): 55.2%; inhibition at 2 µM ([4]; Plasmodium falciparum, replicate R2, read-out: % inhibition female (individual replicates) R2): 57.8%; inhibition at 2 µM ([4]; Plasmodium falciparum, replicate R3, read-out: % inhibition female (individual replicates) R3): 63%; inhibition at 2 µM ([4]; Plasmodium falciparum, replicate R4, read-out: % inhibition female (individual replicates) R4): 48%; pIC50 ([4]; Plasmodium falciparum, PfDGFA, 24 h incubation with gametocytes before induction, female gamete readout, read-out: Female IC50): 6.15; HitlevelF ([4]; number of replicates with >50% inhibition in the female readout, 2µM): 3; Cytotox ratio Pf FGAA ([7]; human): 29.4; Tox50 (HepG2 cells [5]; cytotoxic activity against HepG2 cells): 7.4 µM |
| FC(F)(F)c1ccc2[nH]c(-c3ccc(-c4cccc(CNCCN5CCNCC5)c4)cc3)nc2c1.O=C(O)C(F)(F)F [TC77] | 10.0 | 5.79 | – | – | 3.2 | 16.43 µM | 5.29 | 5.77 | 12.31 µM | 9.6 | – |
| COc1ccc2nc(N=C3NC4(c5ccccc5)NC(=Nc5nc6ccc(OC)cc6[nH]5)NC4(c4ccccc4)N3)[nH]c2c1.O=C(O)C(F)(F)F (centres unmarked) [TC55] | 41.5 | 5.94 | – | – | 8.2 | 48.12 µM | 5.23 | 6.92 | 62.72 µM | 401.0 | – |
| CCc1cc2c(Sc3nnc(N)s3)ncnc2s1 [TC12] | 47.6 | 6.01 | – | – | 63.0 | 46.65 µM | 6.13 | 6.14 | 32.3 µM | 63.9 | – |
| Cc1ccc(C(C(=O)Nc2ccc(N3CCNCC3)c(Cl)c2)c2ccccc2)cc1 (centres unmarked) [TC10] | 27.6 | 6.38 | – | – | 1.2 | 11.61 µM | – | 6.18 | 11.89 µM | 17.6 | – |

Reference: paper PMC10584170, “Machine learning-based phenotypic imaging to characterise the targetable biology of Plasmodium falciparum male gametocytes for the development of transmission-blocking antimalarials” (PLOS Pathogens, 2023)
